Test results from US20260217712A1, “SOLID STATE FORMS OF MNK INHIBITORS” (4E Therapeutics, Inc., priority 2023, published 2026).
Converted amounts (≈) assume the structure as drawn. “Also recorded” adds a separate entry of the source. Where a name gives a salt, the structure may show the parent alone. Read-outs that look alike come from different tables or passages of the source. One block for each compound: values may come before it.

Experiments:
Format in all cases: physicochemical
[1] = Static storage at 40° C./75% RH, XRPD and HPLC post storage; settings: 7 days
[2] = as above; settings: for stability to storage at 40° C./75% RH (in words): 40° C./75% RH (elevated temperature and humidity)
Protocol: Purity analysis was performed on an Agilent HP1100/Infinity II 1260 series system equipped with a diode array detector and using OpenLAB software. The full method details are provided below:
Poorly Crystalline Structure (I) (from Lot A, Free Form Pattern 1, 30 mg) was dissolved in 50 volumes of THF:Water 9:1 at 60° C. in 13 vials, stirring at 500 RPM (small amount of debris present). The solutions were then treated with 1.1 molar equivalents (90/180 μL) of selected counter-ions (Table 7). The resulting solutions were then cooled down to 5° C. at 0.1° C./min and were held at this temperature for 2 days. The suspensions were filtered and dried under suction for 20 min. The gummed sample was left with the cap off to promote crystallization. All solids obtained were initially analyzed by XRPD and stored in glass HPLC vials for subsequent analysis.
Any solids obtained were analyzed by XRPD, ^1H NMR, HPLC, TGA, DSC, XRPD post storage at 40° C./75% RH after 7 days & IC if necessary. Additional microscopy techniques (PLM & HSM) were used to complement the above analysis where appropriate.

[3] = Drying / standing under ambient conditions, XRPD; settings: for XRPD (Dry): after drying under ambient conditions overnight
Protocol: Structure (I) (Sample 28-2, 30 mg, Poorly Crystalline Pattern 3) was wetted with solvent (300 μL, 10 vol) according to Table 30 and put into a shaker at 50° C. for 6 days. The suspensions were isolated using filter cartridges and positive pressure. A XRPD pattern was collected for each sample. […] This characterization is presented and discussed in Examples detailed herein. (see, e.g., FIG. 75)

[4] = Initial solubility testing in solvents; settings: for solubility: organic solvent or mixture, thermodynamic from solid
Protocol: Structure (I) (20 mg) from Lot A (free form Pattern 1) was charged into HPLC vials, treated with solvent, 10 volumes at a time, until the material fully dissolved or a maximum of 50 volumes had been added. Once 50 volumes was reached without dissolution, the temperature was increased to 50° C. To each suspension, 1.1 molar equiv. (60 μL) of HCl (1M in THF) was added, stirred for 5 min, and slowly cooled to 5° C. at 0.1° C./min and held at that temperature overnight. All solids were then isolated by filtration through PTFE frits and dried under suction for 20 min. The samples were analyzed by XRPD.

[5] = Static storage at 25° C./97% RH, XRPD and HPLC post storage; settings: 8 days, listed as Lot A
[6] = Gravimetric vapor sorption (GVS) and XRPD post-GVS
Protocol: Sorption isotherms were obtained using a SMS DVS Intrinsic moisture sorption analyzer, controlled by DVS Intrinsic Control software. The sample temperature was maintained at 25° C. by the instrument controls. The humidity was controlled by mixing streams of dry and wet nitrogen, with a total flow rate of 200 mL/min. The relative humidity was measured by a calibrated Rotronic probe (dynamic range of 1.0-100% RH), located near the sample. The weight change, (mass relaxation) of the sample as a function of % RH was constantly monitored by a microbalance (accuracy±0.005 mg).
(§1) Typically, 5-30 mg of sample was placed in a tared mesh stainless steel basket under ambient conditions. The sample was loaded and unloaded at 40% RH and 25° C. (typical room conditions). A moisture sorption isotherm was performed as outlined below (2 scans per complete cycle). The standard isotherm was performed at 25° C. at 10% RH intervals over a 0-90% RH range. Typically, a double cycle (4 scans) was carried out. Data analysis was carried out within Microsoft Excel using the DVS Analysis Suite.
Sorption isotherms were obtained using a Hiden IGASorp moisture sorption analyser, controlled by Isochema HISorp software. The sample temperature was maintained at 25° C. by a Grant LT ecocool 150 re-circulating water bath. The humidity was controlled by mixing streams of dry and wet nitrogen, with a total flow rate of 250 ml·min-1. The relative humidity was measured by a calibrated Vaisala RH probe (dynamic range of 0-95% RH), located near the sample. The weight change, (mass relaxation) of the sample as a function of % RH was constantly monitored by the microbalance (accuracy±0.001 mg).
as §1, with “Typically, 20-30” for “Typically, 5-30”, “scans giving 1” for “scans per”, “within the Isochema HISorp 2019 software and exported into” for “within”, “Excel to present accordingly.” for “Excel using the DVS Analysis Suite.”

pKa measurements = settings: listed as Lot A
[7] = Thermodynamic solubility in simulated media and buffers; settings: 25 °C, thermodynamic from solid
Protocol: The thermodynamic solubility for Pattern 11 was determined in 3 simulated media and two buffers. […]

XRPD post storage at 40° C./75% RH ([1]; listed as 9-3): SUL Pattern 1
change of chemical purity on storage at 40° C./75% RH (in words) ([2]; 40° C./75% RH): decrease in the observed chemical purity
stability to storage at 40° C./75% RH (in words) [2]: stable to storage
HPLC purity post storage at 40° C./75% RH ([2]; 40° C./75% RH, 7 days, listed as 9-3): 95.6%
change of chemical purity on storage at 40° C./75% RH (in words) ([2]; 40° C./75% RH, listed as 9-3): complex thermal data, loss of purity
Structure (SMILES): Cc1cc(Nc2cc(N)ncn2)c(=O)n2c1C(=O)NC21CCC2(CC2)CC1 [SUL Pattern 1]

solubility ([4]; 50 °C, 50 vol, 50° C., read-out: solubilization upon heating to 50° C.): < 20 mg/mL
solubility ([4]; 20 mg in 10 vol of the sample's solvent, read-out: solubilization at 10 vol): < 100 mg/mL
solubility ([4]; 20 vol of the sample's solvent, read-out: solubilization at 20 vol): < 50 mg/mL
solubility ([4]; 30 vol of the sample's solvent, read-out: solubilization at 30 vol): < 33.3 mg/mL
solubility ([4]; 40 vol of the sample's solvent, read-out: solubilization at 40 vol): < 25 mg/mL
solubility ([4]; 50 vol of the sample's solvent, read-out: solubilization at 50 vol): < 20 mg/mL
Structure (SMILES): Cc1cc(Nc2cc(N)ncn2)c(=O)n2c1C(=O)NC21CCC2(CC2)CC1 [Pattern 8-2]

XRPD post storage at 40° C./75% RH ([1]; listed as 22-1): Unchanged
stability to storage at 40° C./75% RH (in words) ([2]; listed as Chloride Pattern 1): remained stable by XRPD & HPLC
HPLC purity post storage at 40° C./75% RH ([2]; 40° C./75% RH, 7 days, listed as 22-1): 99.3%
Structure (SMILES): Cc1cc(Nc2cc(N)ncn2)c(=O)n2c1C(=O)NC21CCC2(CC2)CC1 [HCl Pattern 1]

XRPD post storage at 40° C./75% RH ([1]; listed as 9-1): XRPD-HBr Pattern 1
change of chemical purity on storage at 40° C./75% RH (in words) ([2]; 40° C./75% RH): slight uplift in purity
stability to storage at 40° C./75% RH (in words) ([2]; listed as 9-1): behavior but not stable to storage
XRPD post storage at 40° C./75% RH ([2]; 40° C./75% RH, 7 days): remained HBr Pattern 1
HPLC purity post storage at 40° C./75% RH ([2]; 40° C./75% RH, 7 days, listed as 9-1): 98.7% purity
Structure (SMILES): Cc1cc(Nc2cc(N)ncn2)c(=O)n2c1C(=O)NC21CCC2(CC2)CC1 [HBr Pattern 1]

XRPD post storage at 40° C./75% RH ([1]; listed as 21-1): storage, with no observed impact
XRPD post storage at 40° C./75% RH ([1]; listed as 22-6): Unchanged
HPLC purity post storage at 40° C./75% RH ([2]; 40° C./75% RH, 7 days, listed as 22-6): 99.1%
change of chemical purity on storage at 40° C./75% RH (in words) ([2]; 40° C./75% RH, listed as 21-1): Notable increase in purity after
Structure (SMILES): Cc1cc(Nc2cc(N)ncn2)c(=O)n2c1C(=O)NC21CCC2(CC2)CC1 [MES Pattern 2]

solubility in solvents (in words) ([4]; up to 50 vol, up to 50° C.): insoluble in most solvents
HPLC purity after storage at 25° C./97% RH (8 days) [5]: HPLC-97.5%
HPLC after storage at 40° C./75% RH (8 days) ([2]; 40° C./75% RH, 8 days): HPLC-98.2%
acidic pKa (acidic center) (pKa measurements): Acidic: 11.49
basic pKa (pKa measurements): Basic: 4.73
solubility thermodynamic ([7]; simulated gastric fluid, SGF (pH 1.4), read-out: Thermodynamic solubility in simulated media, SGF): 0.13 mg/mL (≈ 0.355 mM)
solubility thermodynamic ([7]; FaSSIF (pH 6.7), read-out: Thermodynamic solubility in simulated media, FaSSIF): 0.006 mg/mL (≈ 0.0164 mM)
solubility thermodynamic ([7]; FeSSIF (pH 5.1), read-out: Thermodynamic solubility in simulated media, FeSSIF): 0.02 mg/mL (≈ 0.0546 mM)
Structure (SMILES): Cc1cc(Nc2cc(N)ncn2)c(=O)n2c1C(=O)NC21CCC2(CC2)CC1 [Pattern 1]
XRPD after storage at 25° C./97% RH (8 days) [5]: XRPD-poorly crystalline Pattern 1 (no change)
XRPD after storage at 40° C./75% RH (8 days) ([2]; 40° C./75% RH, 8 days, listed as Lot A): unchanged; also recorded: XRPD-poorly crystalline Pattern 1 (no change)
GVS mass change expressed as water ([6]; 0-90% RH): ~90% RH, exhibiting a slight hysteresis (ca. 6 mol eq water),
Post GVS XRPD form ([6]; after double cycle GVS, listed as Lot A): unchanged; also recorded: showed that the solid form remained as poorly crystalline
hygroscopicity (in words) ([6]; listed as Lot A): highly hygroscopic. XRPD of the sample after the analysis

Continued, compound first:

Structure (SMILES): Cc1cc(Nc2cc(N)ncn2)c(=O)n2c1C(=O)NC21CCC2(CC2)CC1 [Pattern 7]
XRPD post storage at 40° C./75% RH ([1]; listed as 30-6): 7 days: Change in form-Pattern 3
stability to storage at 40° C./75% RH (in words) ([2]; listed as 30-6): not stable to static storage
XRPD (Dry) ([3]; listed as 30-6): Pattern 7

Structure (SMILES): Cc1cc(Nc2cc(N)ncn2)c(=O)n2c1C(=O)NC21CCC2(CC2)CC1 [Pattern 9]
XRPD (Dry) [3]: unstable to drying under ambient conditions
form under ambient conditions (XRPD after ambient overnight) ([3]; ambient conditions): unstable at ambient conditions

Structure (SMILES): Cc1cc(Nc2cc(N)ncn2)c(=O)n2c1C(=O)NC21CCC2(CC2)CC1 [Pattern 6]
XRPD post storage at 40° C./75% RH ([1]; listed as 30-4): convert to Pattern 3; also recorded: form-Pattern 3
XRPD (Dry) ([3]; listed as 30-4): maintained after mild drying; also recorded: Pattern 6

Structure (SMILES): Cc1cc(Nc2cc(N)ncn2)c(=O)n2c1C(=O)NC21CCC2(CC2)CC1 [Pattern 8]
XRPD post storage at 40° C./75% RH ([1]; listed as 30-15): Pattern 3
XRPD (Dry) [3]: unstable to drying under ambient conditions

Structure (SMILES): Cc1cc(Nc2cc(N)ncn2)c(=O)n2c1C(=O)NC21CCC2(CC2)CC1 [FUM Pattern 1]
XRPD post storage at 40° C./75% RH ([1]; listed as 9-10): Fumarate Pattern 1
change of chemical purity on storage at 40° C./75% RH (in words) ([2]; 40° C./75% RH): slight uplift
stability to storage at 40° C./75% RH (in words) [2]: stable to storage
HPLC purity post storage at 40° C./75% RH ([2]; 40° C./75% RH, 7 days, listed as 9-10): 98.8%

Structure (SMILES): Cc1cc(Nc2cc(N)ncn2)c(=O)n2c1C(=O)NC21CCC2(CC2)CC1 [Tartrate Pattern 1]
XRPD post storage at 40° C./75% RH ([1]; listed as 9-9): pattern retained.
stability to storage at 40° C./75% RH (in words) [2]: stable to storage
HPLC purity post storage at 40° C./75% RH ([2]; 40° C./75% RH, 7 days, listed as 9-9): 98.1% purity. Tartrate
